From ChEMBL document CHEMBL1201862, “PubChem BioAssay data set” (2004)
The source made the active and inactive calls.

Assays:
[1] = HEp-2 cell cytotoxicity, dose response, cytotoxicity control for RSV inhibitor project, HTS (AID 2410); type: functional; conditions: human respiratory syncytial virus
Leucine aminopeptidase = biological target: T1, Leucine aminopeptidase (Plasmodium falciparum 3D7, UniProt Q8IL11); test: P. falciparum M17LAP inhibitors, primary screen, biochemical, fluorogenic H-Leu-NHMec substrate, 1536-well (AID 1619); type: functional
T1 sequence (Q8IL11 whole entry): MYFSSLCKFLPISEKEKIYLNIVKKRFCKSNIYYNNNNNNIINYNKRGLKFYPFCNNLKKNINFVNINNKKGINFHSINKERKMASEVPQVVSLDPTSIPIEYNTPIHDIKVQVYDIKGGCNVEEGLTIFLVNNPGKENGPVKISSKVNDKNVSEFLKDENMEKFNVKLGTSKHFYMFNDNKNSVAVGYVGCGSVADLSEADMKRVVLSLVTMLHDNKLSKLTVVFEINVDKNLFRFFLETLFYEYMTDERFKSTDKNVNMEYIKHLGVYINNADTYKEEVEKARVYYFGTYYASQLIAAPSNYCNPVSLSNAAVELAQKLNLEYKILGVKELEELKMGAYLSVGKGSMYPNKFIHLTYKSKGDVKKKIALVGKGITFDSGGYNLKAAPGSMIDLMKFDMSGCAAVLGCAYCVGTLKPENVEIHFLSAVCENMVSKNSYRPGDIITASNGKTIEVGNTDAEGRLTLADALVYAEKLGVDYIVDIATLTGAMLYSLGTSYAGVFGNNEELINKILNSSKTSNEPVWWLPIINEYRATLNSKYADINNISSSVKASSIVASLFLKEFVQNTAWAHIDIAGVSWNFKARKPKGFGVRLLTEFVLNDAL

[2] = biological target: Voltage-dependent T-type calcium channel subunit alpha-1H (Homo sapiens, UniProt O95180); type: functional;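 note: channel activity triggered by adding a high calcium stimulation buffer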
Sequence of Voltage-dependent T-type calcium channel subunit alpha-1H (O95180 whole entry): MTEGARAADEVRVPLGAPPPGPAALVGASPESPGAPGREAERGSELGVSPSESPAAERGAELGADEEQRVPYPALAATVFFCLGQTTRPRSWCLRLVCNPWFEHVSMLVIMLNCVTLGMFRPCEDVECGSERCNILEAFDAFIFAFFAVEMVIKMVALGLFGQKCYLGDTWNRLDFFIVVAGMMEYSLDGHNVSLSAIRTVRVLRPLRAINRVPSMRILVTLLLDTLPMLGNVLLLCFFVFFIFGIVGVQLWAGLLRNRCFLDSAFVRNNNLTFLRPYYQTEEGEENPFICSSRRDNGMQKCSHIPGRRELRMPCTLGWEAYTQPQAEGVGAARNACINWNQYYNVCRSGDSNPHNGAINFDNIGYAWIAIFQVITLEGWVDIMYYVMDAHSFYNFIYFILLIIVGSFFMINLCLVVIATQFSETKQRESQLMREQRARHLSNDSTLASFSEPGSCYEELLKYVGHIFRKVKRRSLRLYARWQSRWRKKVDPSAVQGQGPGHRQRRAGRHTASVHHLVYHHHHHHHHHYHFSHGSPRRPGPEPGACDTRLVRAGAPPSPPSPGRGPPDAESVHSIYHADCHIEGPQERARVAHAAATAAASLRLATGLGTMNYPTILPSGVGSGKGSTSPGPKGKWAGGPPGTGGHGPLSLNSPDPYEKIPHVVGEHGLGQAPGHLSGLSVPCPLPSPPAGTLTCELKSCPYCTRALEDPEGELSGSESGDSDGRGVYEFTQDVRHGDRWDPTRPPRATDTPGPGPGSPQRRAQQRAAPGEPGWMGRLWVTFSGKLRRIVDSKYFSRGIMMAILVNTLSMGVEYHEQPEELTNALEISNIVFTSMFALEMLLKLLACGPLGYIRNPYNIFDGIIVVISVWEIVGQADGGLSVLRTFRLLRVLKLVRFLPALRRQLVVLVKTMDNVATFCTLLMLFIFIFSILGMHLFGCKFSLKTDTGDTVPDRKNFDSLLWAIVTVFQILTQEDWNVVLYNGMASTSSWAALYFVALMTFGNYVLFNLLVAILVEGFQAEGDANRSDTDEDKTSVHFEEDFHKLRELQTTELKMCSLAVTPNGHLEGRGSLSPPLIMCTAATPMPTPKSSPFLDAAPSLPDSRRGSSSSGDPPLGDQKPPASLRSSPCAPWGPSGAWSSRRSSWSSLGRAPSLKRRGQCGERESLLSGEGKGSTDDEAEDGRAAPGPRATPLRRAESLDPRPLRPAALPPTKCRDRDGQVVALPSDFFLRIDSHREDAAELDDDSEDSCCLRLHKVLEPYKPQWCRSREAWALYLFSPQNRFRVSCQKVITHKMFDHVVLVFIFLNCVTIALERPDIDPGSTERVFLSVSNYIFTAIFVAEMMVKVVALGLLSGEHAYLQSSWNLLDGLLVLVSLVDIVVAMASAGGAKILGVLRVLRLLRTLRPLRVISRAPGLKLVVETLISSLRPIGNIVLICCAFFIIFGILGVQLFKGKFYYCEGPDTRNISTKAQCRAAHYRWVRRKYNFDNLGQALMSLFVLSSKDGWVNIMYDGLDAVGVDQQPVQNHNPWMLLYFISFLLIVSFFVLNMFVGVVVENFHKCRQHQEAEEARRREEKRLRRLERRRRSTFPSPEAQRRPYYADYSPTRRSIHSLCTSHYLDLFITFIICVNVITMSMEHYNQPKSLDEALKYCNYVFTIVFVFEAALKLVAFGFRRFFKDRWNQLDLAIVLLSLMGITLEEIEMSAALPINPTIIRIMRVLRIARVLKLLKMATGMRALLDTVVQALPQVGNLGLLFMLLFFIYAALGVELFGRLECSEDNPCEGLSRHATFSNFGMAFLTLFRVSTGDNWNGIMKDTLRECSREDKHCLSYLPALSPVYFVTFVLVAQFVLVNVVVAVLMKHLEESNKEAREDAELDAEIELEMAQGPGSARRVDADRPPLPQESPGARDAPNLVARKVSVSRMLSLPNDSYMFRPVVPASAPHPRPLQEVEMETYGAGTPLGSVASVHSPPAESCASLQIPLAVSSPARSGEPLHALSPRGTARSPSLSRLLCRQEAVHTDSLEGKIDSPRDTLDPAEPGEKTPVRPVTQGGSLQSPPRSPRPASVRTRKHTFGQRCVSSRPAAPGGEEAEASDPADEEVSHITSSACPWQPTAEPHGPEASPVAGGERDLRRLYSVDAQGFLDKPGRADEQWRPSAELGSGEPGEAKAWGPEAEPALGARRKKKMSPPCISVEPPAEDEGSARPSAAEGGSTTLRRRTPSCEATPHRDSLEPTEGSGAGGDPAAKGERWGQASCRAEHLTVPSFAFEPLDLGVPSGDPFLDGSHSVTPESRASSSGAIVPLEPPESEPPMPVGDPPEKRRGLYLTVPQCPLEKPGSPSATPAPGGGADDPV

[3] = THP-1 cell cytotoxicity, dose response, cytotoxicity control for non-replicating M. tuberculosis project (AID 489025); type: functional
[4] = biological target: T2, Heat shock factor protein 1 (Mus musculus, UniProt P38532); test: HSF1 potentiators in luciferase reporter cells, confirmation, cell-based, NIH3T3, luminescence, dose retest (AID 435004); type: functional;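 note: stress induced by proteasome inhibitor MG132 added 30 min after compound; luciferase reporter driven by HSF1 response element in NIH3T3 cells; actives raise luminescence as potentiators of the MG132 stress response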
T2 sequence (P38532 whole entry): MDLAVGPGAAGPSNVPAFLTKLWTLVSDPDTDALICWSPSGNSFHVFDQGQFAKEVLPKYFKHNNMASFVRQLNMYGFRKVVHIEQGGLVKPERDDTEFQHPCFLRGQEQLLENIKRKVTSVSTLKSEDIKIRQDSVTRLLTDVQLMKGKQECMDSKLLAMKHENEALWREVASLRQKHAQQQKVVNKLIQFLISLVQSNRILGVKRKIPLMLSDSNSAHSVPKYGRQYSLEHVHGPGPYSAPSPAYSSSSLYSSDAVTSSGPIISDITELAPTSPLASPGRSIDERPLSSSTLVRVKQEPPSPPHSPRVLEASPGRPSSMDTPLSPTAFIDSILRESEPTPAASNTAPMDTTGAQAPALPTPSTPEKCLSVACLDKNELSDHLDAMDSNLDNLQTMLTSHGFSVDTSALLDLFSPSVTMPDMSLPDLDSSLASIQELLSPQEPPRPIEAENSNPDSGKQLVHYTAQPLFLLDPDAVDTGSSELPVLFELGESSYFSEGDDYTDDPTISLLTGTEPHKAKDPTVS

[5] = biological target: T3, Short transient receptor potential channel 4 (Mus musculus, UniProt Q9QUQ5); test: mouse TRPC4 channel inhibitors, dose response, cell-based, HEK293 TRPC4/mu-opioid, Fluo-4 calcium (AID 434942); type: functional;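 note: potency of inhibitors blocking the TRPC4 calcium response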
T3 sequence (Q9QUQ5 whole entry): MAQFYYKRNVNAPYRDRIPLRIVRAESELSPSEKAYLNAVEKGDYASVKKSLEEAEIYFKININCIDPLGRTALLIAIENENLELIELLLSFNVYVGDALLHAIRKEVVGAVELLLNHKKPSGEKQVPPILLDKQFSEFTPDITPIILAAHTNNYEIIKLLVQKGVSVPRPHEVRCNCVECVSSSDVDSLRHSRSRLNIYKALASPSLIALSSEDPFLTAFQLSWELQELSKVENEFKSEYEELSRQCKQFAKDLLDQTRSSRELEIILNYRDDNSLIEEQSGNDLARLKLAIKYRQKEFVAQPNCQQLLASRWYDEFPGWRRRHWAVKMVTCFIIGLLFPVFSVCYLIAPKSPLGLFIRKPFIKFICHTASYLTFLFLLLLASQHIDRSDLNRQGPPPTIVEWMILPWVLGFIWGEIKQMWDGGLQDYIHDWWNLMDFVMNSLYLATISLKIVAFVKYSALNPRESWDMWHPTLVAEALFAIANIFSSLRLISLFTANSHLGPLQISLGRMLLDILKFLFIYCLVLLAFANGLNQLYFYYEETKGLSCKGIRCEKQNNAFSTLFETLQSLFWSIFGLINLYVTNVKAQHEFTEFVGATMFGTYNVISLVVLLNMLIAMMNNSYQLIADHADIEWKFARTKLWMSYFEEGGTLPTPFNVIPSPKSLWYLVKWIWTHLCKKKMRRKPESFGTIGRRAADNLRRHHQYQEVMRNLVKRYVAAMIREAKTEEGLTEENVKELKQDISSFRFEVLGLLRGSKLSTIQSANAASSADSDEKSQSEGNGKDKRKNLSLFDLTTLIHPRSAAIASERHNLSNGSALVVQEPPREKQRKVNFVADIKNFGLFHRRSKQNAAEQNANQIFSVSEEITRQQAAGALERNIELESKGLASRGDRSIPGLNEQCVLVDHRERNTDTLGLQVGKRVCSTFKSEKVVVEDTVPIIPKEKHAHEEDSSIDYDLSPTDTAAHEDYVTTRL

Hexokinase = biological target: T4, Hexokinase (Trypanosoma brucei, UniProt Q38C41); test: Confirmation assay for inhibitors of Trypanosoma brucei hexokinase 1-Analogue-first series. [Related pubchem assays (depositor defined):AID1430, AID1632, AID2516, AID2560, AID2579, AID2600, AID449725, AID492951]; type: functional
T4 sequence (Q38C41 whole entry): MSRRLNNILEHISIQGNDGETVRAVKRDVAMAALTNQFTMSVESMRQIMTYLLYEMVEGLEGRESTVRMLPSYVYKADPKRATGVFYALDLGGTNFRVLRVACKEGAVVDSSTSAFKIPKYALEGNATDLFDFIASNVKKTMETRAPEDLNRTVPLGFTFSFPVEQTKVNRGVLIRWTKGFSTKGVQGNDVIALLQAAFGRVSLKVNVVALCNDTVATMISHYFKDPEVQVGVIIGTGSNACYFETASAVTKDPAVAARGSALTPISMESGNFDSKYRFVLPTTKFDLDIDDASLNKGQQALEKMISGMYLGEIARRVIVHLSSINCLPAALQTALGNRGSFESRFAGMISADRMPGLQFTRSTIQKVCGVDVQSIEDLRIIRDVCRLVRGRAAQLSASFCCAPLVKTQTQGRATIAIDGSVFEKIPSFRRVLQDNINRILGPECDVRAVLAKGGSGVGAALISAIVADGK

Streptokinase A = biological target: T5, Streptokinase A (Streptococcus pyogenes serotype M1, UniProt P10520); test: S. pyogenes streptokinase expression inhibitors, potency, dose response, plasminogen activation absorbance, OD405 (AID 1914); type: functional, Streptococcus pyogenes M1 GAS;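 note: secreted streptokinase activity via plasminogen activation per viability signal from cell pellet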
T5 sequence (P10520 whole entry): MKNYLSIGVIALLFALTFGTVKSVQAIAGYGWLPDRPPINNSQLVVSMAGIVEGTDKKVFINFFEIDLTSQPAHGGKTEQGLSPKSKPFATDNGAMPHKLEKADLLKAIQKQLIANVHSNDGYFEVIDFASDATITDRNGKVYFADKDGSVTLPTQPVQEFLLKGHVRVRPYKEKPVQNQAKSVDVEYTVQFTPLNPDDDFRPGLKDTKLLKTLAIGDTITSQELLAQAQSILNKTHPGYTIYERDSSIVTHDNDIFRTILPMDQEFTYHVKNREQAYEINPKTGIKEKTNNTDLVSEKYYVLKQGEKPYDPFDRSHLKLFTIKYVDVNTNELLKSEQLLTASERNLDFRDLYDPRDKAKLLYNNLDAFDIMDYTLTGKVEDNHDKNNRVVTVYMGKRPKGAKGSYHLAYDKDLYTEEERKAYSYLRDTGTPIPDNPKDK

[6] = tested on: Streptococcus sp. 'group A'; test: growth inhibition of control SK(-) GAS strain, dose response, counter-screen for streptokinase expression inhibitor project, luminescence, kanamycin, BacTiterGlo, confirmation (AID 1900); type: functional, organism-based
Streptococcus = test: Group A Streptococcus viability loss, dose response, counter-screen for streptokinase expression inhibitor project, luminescence, BacTiterGlo (AID 1915); type: functional, organism-based;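 note: potency for reduction of bacterial viability or growth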
[7] = biological target: T6, Rac GTPase-activating protein 1 (Homo sapiens, UniProt Q9H0H5); test: MgcRacGAP GTPase-activating activity inhibitors, confirmation, biochemical, ADP Hunter fluorescence, primary and confirmatory (AID 624330); type: functional
T6 sequence (Q9H0H5 whole entry): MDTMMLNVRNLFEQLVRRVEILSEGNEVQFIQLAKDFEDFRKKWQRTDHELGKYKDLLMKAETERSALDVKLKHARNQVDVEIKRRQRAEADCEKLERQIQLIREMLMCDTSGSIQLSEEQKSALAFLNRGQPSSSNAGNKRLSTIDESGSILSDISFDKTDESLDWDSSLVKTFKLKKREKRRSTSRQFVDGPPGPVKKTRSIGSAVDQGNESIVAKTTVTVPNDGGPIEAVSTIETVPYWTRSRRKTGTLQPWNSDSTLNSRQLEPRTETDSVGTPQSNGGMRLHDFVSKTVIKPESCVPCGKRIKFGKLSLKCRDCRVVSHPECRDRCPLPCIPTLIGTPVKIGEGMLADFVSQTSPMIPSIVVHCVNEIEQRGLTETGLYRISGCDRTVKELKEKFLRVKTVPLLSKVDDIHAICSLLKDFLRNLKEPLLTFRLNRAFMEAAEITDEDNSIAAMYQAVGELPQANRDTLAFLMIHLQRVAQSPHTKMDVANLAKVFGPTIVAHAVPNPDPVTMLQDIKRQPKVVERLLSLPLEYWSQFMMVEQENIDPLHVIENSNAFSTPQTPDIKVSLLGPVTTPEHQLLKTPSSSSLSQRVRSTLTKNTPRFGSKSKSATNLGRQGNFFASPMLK

Large T antigen = Large T antigen (Simian virus 40, UniProt P03070); type: functional, Betapolyomavirus macacae;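 note: Confirmatory-stage PubChem screen for compounds that inhibit SV40 T antigen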
Sequence of Large T antigen (P03070 whole entry): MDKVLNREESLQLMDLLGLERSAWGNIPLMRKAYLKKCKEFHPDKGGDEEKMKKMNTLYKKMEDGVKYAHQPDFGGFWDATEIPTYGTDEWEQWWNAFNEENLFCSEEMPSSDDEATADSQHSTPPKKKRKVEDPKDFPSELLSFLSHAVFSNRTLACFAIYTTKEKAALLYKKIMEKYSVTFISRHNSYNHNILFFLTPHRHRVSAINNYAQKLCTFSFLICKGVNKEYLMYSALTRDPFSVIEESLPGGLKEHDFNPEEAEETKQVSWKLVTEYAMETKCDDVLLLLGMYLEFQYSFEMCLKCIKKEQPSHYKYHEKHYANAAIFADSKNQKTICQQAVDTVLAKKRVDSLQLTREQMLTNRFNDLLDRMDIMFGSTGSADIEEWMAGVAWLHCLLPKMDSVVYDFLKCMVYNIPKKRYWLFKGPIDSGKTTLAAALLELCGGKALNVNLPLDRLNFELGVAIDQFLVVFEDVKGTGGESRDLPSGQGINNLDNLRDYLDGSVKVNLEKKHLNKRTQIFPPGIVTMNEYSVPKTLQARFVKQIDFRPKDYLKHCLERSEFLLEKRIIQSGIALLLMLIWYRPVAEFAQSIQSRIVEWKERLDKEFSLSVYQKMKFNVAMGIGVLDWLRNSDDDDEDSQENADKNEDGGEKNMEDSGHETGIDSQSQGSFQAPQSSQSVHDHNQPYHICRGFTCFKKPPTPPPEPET

[8] = biological target: FAD-linked sulfhydryl oxidase ALR (Homo sapiens, UniProt P55789); test: inhibitors of human ALR sulfhydryl oxidase, dose response, biochemical, H2O2 detection, luminescence, cherry-pick (AID 493248)
Sequence of FAD-linked sulfhydryl oxidase ALR (P55789 whole entry): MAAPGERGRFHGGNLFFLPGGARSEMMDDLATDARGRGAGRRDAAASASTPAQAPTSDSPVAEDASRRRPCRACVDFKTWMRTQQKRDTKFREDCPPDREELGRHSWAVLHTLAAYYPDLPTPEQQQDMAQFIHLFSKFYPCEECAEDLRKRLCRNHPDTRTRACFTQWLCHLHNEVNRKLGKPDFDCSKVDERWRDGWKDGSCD

SMILES: COc1cc2c(cc1OC)C(C)N(C(=O)c1cc3ccccc3o1)CC2 (stereo not drawn)
- IC50 (cells): 39.6 µM (active)
- CC50 [1]: 17.7 µM (active)

SMILES: Cc1cc(O)nc(SCC(=O)Nc2ccc(F)cc2)c1C#N
- IC50 (Leucine aminopeptidase): 4.1 µM (active)

SMILES: O=C(/C=C/c1ccc2c(c1)OCO2)NCCSCc1ccc(Cl)cc1Cl
- EC50 [2]: 4.94 µM (active)

SMILES: O=C1CCSc2ccc(Cl)cc2N1Cc1cccc(Cl)c1
- IC50 (cells): 42.8 µM (active)
- CC50 [1]: 35.5 µM (active)

SMILES: Cc1cc(C)nc(SCc2nnc(SCC(=O)Nc3ccc(C)c(C)c3)n2Cc2ccco2)n1
- EC50 [2]: 4.05 µM (active)

SMILES: Oc1ccccc1Nc1nc(NCC2CCCO2)c2ccccc2n1 (stereo not drawn)
- CC50 [3]: 30.4 µM (active)

SMILES: CC(C)(C)Cc1nc2ccccc2n1CCc1ccccc1
- EC50 [4]: > 260 µM (inactive)
- EC50 [2]: 7.13 µM (active)
- EC50 [5]: 1.06 µM (active)

SMILES: CCOc1cc(CNc2ccccc2)cc(Br)c1OCC(=O)NC(C)(C)C
- EC50 [2]: 15.4 µM (active)

SMILES: COc1ccc2sc(N3C(=O)C4CC=C(C)CC4C3=O)nc2c1 (stereo not drawn)
- IC50 (Leucine aminopeptidase): 35 µM (active)

SMILES: CCOc1ccc(Nc2nc(Cc3nnc(SCC(=O)NCc4ccco4)n3CC)cs2)cc1
- IC50 (Leucine aminopeptidase): 28.1 µM (active)

SMILES: Cc1cc2nc(-c3ccc(NC(=O)C(C)C)cc3)oc2cc1C
- IC50 (cells): 39.1 µM (active)

SMILES: Cc1ccc(C)c(N2CCN(C(=O)Cc3cn(C)c4ccccc34)CC2)c1
- EC50 [2]: 9.19 µM (active)

SMILES: CCN(c1ccccc1)S(=O)(=O)c1ccc(OC)c(NC(=O)Cc2ccccc2OC)c1
- IC50 (cells): 35 µM (active)
- CC50 [1]: > 50 µM (active)

SMILES: COc1ccc(C(=O)Nc2cc(Cl)ccc2-c2nnn[nH]2)cc1
- IC50 (Hexokinase): 10.9 µM (active)

SMILES: COc1ccc(C(=O)Nc2cc(Br)ccc2C(=O)O)cc1
- IC50 (Hexokinase): 6.94 µM (active)

SMILES: COc1ccc2c(c1)CN(c1cc(Cl)ccc1C(=O)O)C2=O
- IC50 (Hexokinase): > 25 µM (inactive)

SMILES: O=C(Nc1cc(Cl)ccc1C(=O)O)c1cocn1
- IC50 (Hexokinase): > 25 µM (inactive)

SMILES: COc1ccc(NC(=O)c2ccccc2SCc2ccccc2)cc1
- IC50 (Hexokinase): > 25 µM (inactive)

SMILES: Nc1sc(-c2ccccc2)cc1C(=O)N/N=C/c1ccc(Cl)cc1
- IC50 (cells): 35.7 µM (active)
- EC50 (Streptokinase A): > 150 µM (not active)
- EC50 [6]: 3.46 µM (active)
- EC50 (Streptococcus): 4.54 µM (active)
- CC50 [1]: > 50 µM (active)

SMILES: COc1cc(/C(C)=N/NC(=O)Cc2c(C)n[nH]c2O)ccc1O
- IC50 [7]: 69.8 µM (active)
- IC50 (Large T antigen): 13 µM (active)
- IC50 (Leucine aminopeptidase): 34.1 µM (active)
- AC50 [8]: 4.03 µM (active)

SMILES: O=C(O)c1cc(/C=N\O)ccc1OCc1ccccc1
- IC50 (Leucine aminopeptidase): 16.4 µM (active)
